Test results published in the CheMixHub viscosity set.

Experiment: xn = mol fraction of the nth substance listed
Conditions: 101 kPa

CCCCOC(C)=O + Cc1ccccc1
viscosity [mPa·s]
Conditions	293.15 K	298.15 K	303.15 K	308.15 K	313.15 K	318.15 K
x1 = 0.0478	–	0.552	–	0.499	–	–
x1 = 0.1494	–	0.556	–	0.503	–	–
x1 = 0.249	–	0.563	–	0.509	–	–
x1 = 0.348	–	0.571	–	0.515	–	–
x1 = 0.4469	–	0.581	–	0.523	–	–
x1 = 0.501	–	0.587	–	0.528	–	–
x1 = 0.5488	–	0.593	–	0.532	–	–
x1 = 0.6468	–	0.607	–	0.543	–	–
x1 = 0.7365	–	0.621	–	0.554	–	–
x1 = 0.8683	–	0.645	–	0.572	–	–
x1 = 0.9671	–	0.666	–	0.588	–	–
x2 = 0.1024	0.7105	0.6642	0.6223	0.5852	0.5502	0.5173
x2 = 0.205	0.6942	0.6504	0.6104	0.5742	0.5405	0.5084
x2 = 0.3107	0.6786	0.6362	0.5973	0.5624	0.5294	0.4996
x2 = 0.4031	0.6661	0.6247	0.587	0.5526	0.5208	0.4908
x2 = 0.4615	0.6566	0.6161	0.579	0.546	0.514	0.4858
x2 = 0.5069	0.6517	0.6115	0.5746	0.5408	0.5103	0.4814
x2 = 0.5564	0.6439	0.6045	0.5683	0.5352	0.5051	0.4769
x2 = 0.614	0.6371	0.5984	0.5628	0.5301	0.5003	0.4725
x2 = 0.7101	0.6252	0.5864	0.5515	0.5197	0.4913	0.4644
x2 = 0.8103	0.6123	0.5753	0.5419	0.5103	0.4833	0.4562
x2 = 0.908	0.6017	0.5667	0.5337	0.5035	0.4761	0.4496
